Experimental data reported in patent US20120172351A1, “NOVEL FUSED CYCLIC COMPOUND AND USE THEREOF” (priority 2009, published 2012).
Counter-ions that a name gives are not always drawn. Marks after values point to notes of the source that are not given here.

Columns and labels:
human derived GPR40 = target: T1, human derived GPR40 (Homo sapiens, UniProt O14842); assay: Agonist action on human derived GPR40: change of intracellular calcium concentration in CHO cells (FLIPRtetra); format: cell-based; conditions: agonist activity of compound at 1 μM, relative to 10 μM γ linolenic acid as 100%, wave peak height; CHO cells stably expressing human GPR40
T1 construct: expressed in transfected cells
Procedure: The CHO cell lines that stably expressed human derived GPR40 were used for the determination of the agonist activity. Unless particularly specified, the CHO cell lines were cultured in an α-MEM medium (Wako Pure Chemical Industries, Ltd.) containing 10% dialyzed fetal bovine serum (TRA Thermo Electron).
The cells cultured almost to confluent on the day before assay were rinsed with PBS (Invitrogen), detached with 0.5 mM EDTA (Wako Pure Chemical Industries, Ltd.), and recovered by centrifugation. The obtained cells were counted, diluted to 2×10^5 cells per 1 mL medium, dispensed by 40 μL per well to a 384 well black clear bottomplate (PE Biosystems), and cultured overnight in a CO2 incubator. Various test compounds were added to CHO cells prepared as mentioned above, and change of intracellular calcium concentration was measured using FLIPRtetra (Molecular Device). For the measurement by this device, a Calcium 4 assay kit (Molecular Devices: R8142) was used.
First, fatty acid free BSA at the final concentration of 0.1% was added to the buffer attached to the kit to prepare an assay buffer. Using the assay buffer, a loading solution with Fluo4 was prepared such that the final concentration of fatty acid free BSA was 0.1% and the final concentration of probenecid was 625 μM. On the other hand, a test compound was diluted with the assay buffer to a given concentration, and dispensed to the polypropylene 384-well plate (sample plate). The medium was removed from the cell culture plate, and the loading solution with Fluo4 was dispensed by 25 μL. After culture in a CO2 incubator at 37° C. for 40 min, a sample plate and a cell plate were simultaneously set on the FLIPRtetra, various test compounds were added by 25 μL according to the program of the device, and change of intracellular calcium concentration was measured. The agonist activity of each compound at 1 μM was calculated as a relative activity value to the activity of 10 μM γ linolenic acid as 100% from the wave peak height.

N-STZ-1.5 rat = assay: Oral glucose tolerance test in N-STZ-1.5 rat (type 2 diabetes model); format: in vivo; conditions: male N-STZ-1.5 rats, 1 mg/kg oral, glucose 1.5 g/kg 1 hr after dosing; for Blood glucose lowering rate: glucose AUC 0-120 min vs control group; for Insulin increasing rate: insulin AUC 0-120 min vs control group
Procedure: The blood glucose increase suppressive action and insulin secretagogue action of the compound of the present invention were evaluated by an oral glucose tolerance test using N-STZ-1.5 rat (TAKEDA RABICS).
Streptozotocin (120 mg/kg) was subcutaneously administered to male Wistar Kyoto rats (1-2 days old) to prepare N-STZ-1.5 rat which is a type 2 diabetes model. The rats were bred under free access to a feed (CE-2, sold by CLEA Japan, Inc.).
Male N-STZ-1.5 rats (21-week-old) were fasted for 19-21 hr, and the body weight was measured. Heparin (Ajinomoto Co., Inc.) was added as an anticoagulant, and aprotinin (SIGMA) was added as a protease inhibitor, and the blood was collected from the tail vein. 0.5% Methylcellulose (control group) or a 0.5% methylcellulose suspension of a test compound (1 mg/kg body weight) was orally administered to the rats of each group (6 per group) at 5 ml/kg and, 1 hr after the administration, a glucose solution (Otsuka Pharmaceutical Factory, Inc.) was orally administered at 1.5 g/5 ml/kg. The blood was collected from the tail vein immediately before glucose loading (0 min value) and 10, 30, 60, 120 min thereafter. The blood was centrifuged and the plasma was separated. The plasma glucose and insulin concentration of the obtained plasma were measured. The plasma glucose was measured by automatic analyzer 7080 (HITACHI), and the insulin concentration was measured by RAT INSULIN RIA KIT (LINCO Research). The glucose AUC and insulin AUC were calculated from the obtained values by the following formulas. Moreover, blood glucose lowering rate and insulin increasing rate were calculated from the obtained AUC by the following formulas. Statistical significance versus control was analyzed by Student's t-test or Aspin-Welch test.
{(0 min plasma glucose)+(10 min plasma glucose)}×10/2+{(10 min plasma glucose)+(30 min plasma glucose)}×20/2+{(30 min plasma glucose)+(60 min plasma glucose)}×30/2+{(60 min plasma glucose)+(120 min plasma glucose)}×60/2
{(0 min plasma insulin)+(10 min plasma insulin)}×10/2+{(10 min plasma insulin)+(30 min plasma insulin)}×20/2+{(30 min plasma insulin)+(60 min plasma insulin)}×30/2+{(60 min plasma insulin)+(120 min plasma insulin)}×60/2
blood glucose lowering rate: [(test compound administration group glucose AUC/control group glucose AUC)−1]×100
insulin increasing rate: [(test compound administration group insulin AUC/control group […] AUC)-1]×100

Wistar fatty rat = assay: Oral glucose tolerance test in Wistar fatty rat; format: in vivo; conditions: female Wistar fatty rats, 1 mg/kg oral, glucose 1 g/kg 1 hr after dosing; glucose AUC 0-120 min vs control group
Procedure: The blood glucose increase suppressive action of the compound of the present invention was evaluated by an oral glucose tolerance test using Wistar fatty rat (TAKEDA RABICS).
The animal used was female Wistar fatty rat (prepared by TAKEDA RABICS, 18- to 22-week-old). The rats were bred under free access to a feed (CE-2, sold by CLEA Japan, Inc.).
Female Wistar fatty rats (18- to 22-week-old) were fasted for 19-21 hr, and the body weight was measured. Heparin (Ajinomoto Co., Inc.) was added as an anticoagulant, and aprotinin (SIGMA) was added as a protease inhibitor, and the blood was collected from the tail vein. 0.5% Methylcellulose (control group) or a 0.5% methylcellulose suspension of a test compound (1 mg/kg body weight) was orally administered to the rats of each group (6 per group) at 5 ml/kg and, 1 hr after the administration, a glucose solution (Otsuka Pharmaceutical Factory, Inc.) was orally administered at 1 g/5 ml/kg. […] The plasma glucose of the obtained plasma were measured by automatic analyzer 7080 (HITACHI). The glucose AUC was calculated from the obtained values by the formulas described in Experimental Example 2. Moreover, blood glucose lowering rate was calculated from the obtained AUC by the formulas described in Experimental Example 2. Statistical significance versus control was analyzed by Student's t-test.

T1 sequence (O14842 whole entry): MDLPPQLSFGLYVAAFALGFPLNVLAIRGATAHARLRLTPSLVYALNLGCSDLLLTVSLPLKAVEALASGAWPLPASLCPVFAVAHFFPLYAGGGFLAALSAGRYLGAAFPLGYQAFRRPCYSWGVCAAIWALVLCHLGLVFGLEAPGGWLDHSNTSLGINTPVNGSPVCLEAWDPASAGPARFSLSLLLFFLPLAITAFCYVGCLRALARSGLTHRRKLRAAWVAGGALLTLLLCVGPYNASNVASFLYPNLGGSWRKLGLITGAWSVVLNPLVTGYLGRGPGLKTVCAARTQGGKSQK

Compound | melting point | activity (%) (human derived GPR40) | Blood glucose lowering rate (N-STZ-1.5 rat) | Insulin increasing rate (N-STZ-1.5 rat) | Blood glucose lowering rate (Wistar fatty rat)
Cc1nc(N2CCOCC2)nc(C)c1-c1cccc(CNc2ccc3c(c2)OC[C@H]3CC(=O)O)c1C (as salt: salt) [Example 242, 1,3-dihydroxy-2-(hydroxymethyl)propan-2-aminium [(3S)-6-({3[4,6-dimethyl-2-(morpholin-4-yl)pyrimidin-5-yl]-2-methylbenzyl}amino)-2,3-dihydro-1-benzofuran-3-yl]acetate] | 154 °C | – | – | – | –
Cc1cc(OCCCS(C)(=O)=O)cc(C)c1-c1cccc2c1OC[C@H]2Nc1ccc2c(c1)OC[C@H]2CC(=O)O [Example 7, [(3S)-6-{[(3S)-7-{2,6-dimethyl-4-[3-(methylsulfonyl)propoxy]phenyl}-2,3-dihydro-1-benzofuran-3-yl]amino}-2,3-dihydro-1-benzofuran-3-yl]acetic acid] | 169 °C | 124% | −20.5%** | +39.5%^$ | –
Cc1cc(OC[C@@H]2CCC(=O)N2)cc(C)c1-c1cccc2c1OC[C@H]2Nc1ccc2c(c1)OC[C@H]2CC(=O)O [Example 8, [(3S)-6-{[(3S)-7-(2,6-dimethyl-4-{[(2S)-5-oxopyrrolidin-2-yl]methoxy}phenyl)-2,3-dihydro-1-benzofuran-3-yl]amino}-2,3-dihydro-1-benzofuran-3-yl]acetic acid] | 161 °C | 131% | – | – | –
Cc1cc(OC2CCS(=O)(=O)CC2)cc(C)c1-c1cccc2c1OC[C@H]2Nc1ccc2c(c1)OC[C@H]2CC(=O)O [Example 9, [(3S)-6-{[(3S)-7-{4-[(1,1-dioxidotetrahydro-2H-thiopyran-4-yl)oxy]-2,6-dimethylphenyl}-2,3-dihydro-1-benzofuran-3-yl]amino}-2,3-dihydro-1-benzofuran-3-yl]acetic acid] | 176 °C | 128% | – | – | −15.8%**
CCOc1nc2ccc(F)c(F)c2n1-c1cccc2c1OC[C@H]2Nc1ccc2c(c1)OC[C@H]2CC(=O)[O-].[Na+] [Example 33, sodium [(3S)-6-{[(3S)-7-(2-ethoxy-6,7-difluoro-1H-benzimidazol-1-yl)-2,3-dihydro-1-benzofuran-3-yl]amino}-2,3-dihydro-1-benzofuran-3-yl]acetate] | – | 109% | – | – | −19.5%**
Cc1nc(N2CCOCC2)nc(C)c1-c1cccc2c1OC[C@H]2Nc1ccc2c(c1)OC[C@H]2CC(=O)O [Example 77, [(3S)-6-({(3S)-7-[4,6-dimethyl-2-(morpholin-4-yl)pyrimidin-5-yl]-2,3-dihydro-1-benzofuran-3-yl}amino)-2,3-dihydro-1-benzofuran-3-yl]acetic acid] | 168 °C | – | – | – | –
Cc1nc(N2CCOCC2)nc(C)c1-c1cccc2c1OC[C@H]2Nc1ccc2c(c1)OC[C@H]2CC(=O)O.O [Example 77-1, Hydrate of [(3S)-6-({(3S)-7-[4,6-dimethyl-2-(morpholin-4-yl)pyrimidin-5-yl]-2,3-dihydro-1-benzofuran-3-yl}amino)-2,3-dihydro-1-benzofuran-3-yl]acetic acid] | – | – | −13.6%^$ | +40.2%^$ | –
Cc1nc(N2CCCC2)nc(C)c1-c1cccc2c1OC[C@H]2Nc1ccc2c(c1)OC[C@H]2CC(=O)O [Example 79, [(3S)-6-({(3S)-7-[4,6-dimethyl-2-(pyrrolidin-1-yl)pyrimidin-5-yl]-2,3-dihydro-1-benzofuran-3-yl}amino)-2,3-dihydro-1-benzofuran-3-yl]acetic acid] | 169 °C | 126% | – | – | –
CCCN(c1cc(C)ccn1)c1cccc2c1OC[C@H]2Nc1ccc2c(c1)OC[C@H]2CC(=O)O [Example 82, [(3S)-6-({(3S)-7-[(4-methylpyridin-2-yl)(propyl)amino]-2,3-dihydro-1-benzofuran-3-yl}amino)-2,3-dihydro-1-benzofuran-3-yl]acetic acid] | 146 °C | 129% | – | – | –
Cc1nc(N2CCOCC2)nc(C)c1-c1cccc(CNc2ccc3c(c2)OC[C@H]3CC(=O)O)c1C [Example 242, 1,3-dihydroxy-2-(hydroxymethyl)propan-2-aminium [(3S)-6-({3[4,6-dimethyl-2-(morpholin-4-yl)pyrimidin-5-yl]-2-methylbenzyl}amino)-2,3-dihydro-1-benzofuran-3-yl]acetate] | – | 121% | – | – | –
